In the test the target is Prostaglandin E2 receptor EP2 subtype (Homo sapiens) (UniProt P43116). As to the kind of experiment: EP2 receptor modulators, dose response, cell-based, human EP2, PGE2 EC50 shift (AID 1421). Conditions: EP2-expressing cells, PGE2 EC50 shift by compound; for PGE2 EC50 with compound: measured here: PGE2 EC50 at 6.7 uM compound.

Calls of active or inactive are those of the source. No rule for the calls is given here.

Sequence of Prostaglandin E2 receptor EP2 subtype (Homo sapiens) (P43116 whole entry, looked up): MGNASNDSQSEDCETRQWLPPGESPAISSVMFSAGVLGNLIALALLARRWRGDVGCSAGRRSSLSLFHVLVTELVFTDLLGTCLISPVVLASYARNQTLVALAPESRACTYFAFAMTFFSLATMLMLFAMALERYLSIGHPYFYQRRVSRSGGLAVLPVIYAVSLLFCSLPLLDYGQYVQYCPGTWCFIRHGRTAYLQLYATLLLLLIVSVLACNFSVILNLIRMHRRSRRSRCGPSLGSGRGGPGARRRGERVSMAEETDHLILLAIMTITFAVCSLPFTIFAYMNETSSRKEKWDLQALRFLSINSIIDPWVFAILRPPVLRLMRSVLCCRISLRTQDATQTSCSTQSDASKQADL

With `CCOC(=O)c1c(NC(=O)CN2CCN(C(=O)c3ccco3)CC2)sc2c1CCCC2`, the PGE2 EC50 with compound came out at 0.85 nM.
On to `CSc1ncc2c(n1)-c1cc(C)ccc1SC2`, for which the result was active and the PGE2 EC50 with compound was 0.93 nM.
As for `N#CC1=C(N)SC(N)=C(C#N)C1c1ccoc1`, the PGE2 EC50 with compound is 2.61 nM.
Regarding `c1cncc(-c2nc(N3CCOCC3)c3c4c(sc3n2)CCC4)c1`, the PGE2 EC50 with compound worked out at 1.15 nM.
With `Clc1ccc(Cl)c(-c2ccc(/C=N/c3ncn[nH]3)o2)c1`, the PGE2 EC50 with compound was 1.34 nM.
For the molecule `COc1ccc(N2CCN(c3nc4c(c(=O)[nH]c(=O)n4C)n3Cc3cccc(C)c3)CC2)cc1`, the PGE2 EC50 with compound was 0.7 nM.
As to `CC(C)Sc1nc2sc3c(c2c2nnc(SCC(=O)NCc4ccco4)n12)CCCC3`, the PGE2 EC50 with compound is 0.93 nM.
In the case of `CCOC(=O)c1c(NC(=O)Cn2nnc3ccccc32)sc2c1CCC(C)C2` (stereo not given), the PGE2 EC50 with compound was found to be 1.14 nM.
Take `CCn1nnnc1SCC(=O)Nc1cccc(C)n1`: the PGE2 EC50 with compound was determined as 1.44 nM.
On the same count and under the same terms, as for `CCCn1c(C)nc2c(c1=O)c1nc3ccccc3nc1n2CCC1=CCCCC1`, the figure is 1.42 nM; as for `Clc1ccc(-c2ccc(/C=N/Nc3cc(N4CCOCC4)nc(N4CCOCC4)n3)o2)cc1`, 2.85 nM; as for `CCCCOc1ccc(-c2nnc(-c3ccco3)o2)cc1`, 1.18 nM.
For `O=C1CCC(c2ccccc2)=NN1Cc1c(F)cccc1Cl`, the result was active and the PGE2 EC50 with compound turned out to be 0.9 nM.
Turning to `COCCOC(=O)c1c(C)oc2ccc(OCc3ccccc3)cc12`, the PGE2 EC50 with compound worked out at 1.04 nM.
Consider `CCOc1ccc(OCC)c(NC(=O)CN2CCN(c3ccc(C)cc3C)CC2)c1`, for which the PGE2 EC50 with compound came out at 0.88 nM.
As for `COC(=O)c1c(NC(=O)c2ccccc2N(C)S(=O)(=O)c2ccccc2)sc2c1CCCC2`, the PGE2 EC50 with compound worked out at 1.49 nM.
With `O=C(COC(=O)c1ccccc1)Nc1ccccc1Sc1ccccc1`, the PGE2 EC50 with compound turned out to be 0.83 nM.
In the case of `CN(c1ccccc1)C1CCCCC1NS(=O)(=O)c1ccc(Cl)cc1` (stereo not given), the PGE2 EC50 with compound was 2.43 nM.
Turning to `CC(=O)O[C@H]1CC[C@@]2(C)[C@@H](CC[C@H]3[C@H]2CC(=O)[C@]2(C)[C@@H]3C[C@H]3CC(C)=CC(=O)[C@@H]32)C1`, the PGE2 EC50 with compound was 1.34 nM.
On the same count and under the same terms, as for `CCOc1ccccc1NC(=O)c1c(Br)cnn1C`, the figure is 1.08 nM; as for `CSc1nnc(-c2cc3c(s2)-c2ccccc2CC3)o1`, 1.15 nM.
With `CCOc1ccccc1-c1nc2c(C(C)(C)C)nn(C)c2c(=O)[nH]1`, the PGE2 EC50 with compound amounted to 1.51 nM.
For the molecule `Cc1cccc(C)c1OC(=O)C(c1ccccc1)c1ccccc1`, the result was active and the PGE2 EC50 with compound stood at 2.47 nM.
Turning to `c1ccc(CCc2cccnc2)nc1`, the PGE2 EC50 with compound came to 1.62 nM.
With `Cc1ccc2nc(Nc3ccc4[nH]c(=O)[nH]c4c3)c(-n3nc(C)cc3C)nc2c1`, the outcome was active and the PGE2 EC50 with compound amounted to 2.69 nM.
On to `O=c1c(C=NCc2ccccc2)c(NCc2ccccc2)nc2ccccn12`, for which the PGE2 EC50 with compound came to 0.96 nM.
With `CCc1c(C)nc2ccc(Br)cc2c1SCCC#N`, the PGE2 EC50 with compound was 2.61 nM.
On the same count and under the same terms, with `Cc1ccc(C)c(CN2C(=O)C(C)Oc3ccc(C)cc32)c1` (stereo not given) the figure was 0.31 nM; with `COc1ccc(C2CC(C(F)(F)F)n3nc(C(N)=O)c(Cl)c3N2)cc1OC` (stereo not given), 0.71 nM.
For the molecule `c1ccn(-c2ncnc3sc4c(c23)CCCC4)c1`, the PGE2 EC50 with compound worked out at 1.45 nM.
On to `CCc1ccc(Nc2oc(C)cc(=O)c2C(C)=O)cc1`, for which the PGE2 EC50 with compound was found to be 1.55 nM.
As for `COc1ccc(Nc2nc(-c3cc4cccc(OC)c4oc3=O)cs2)cc1`, the PGE2 EC50 with compound amounted to 1.29 nM.
For the molecule `Cc1cc(-c2sccc2C)nc(-n2cccc2)n1`, the PGE2 EC50 with compound came to 2.5 nM.
Turning to `CCc1ccc2[nH]c(=O)c(CN(Cc3nnnn3C3CCCC3)C3CCCCC3)cc2c1`, the PGE2 EC50 with compound stood at 0.8 nM.
Consider `CC1CCN(c2nc3c(c(=O)[nH]c(=O)n3C)n2CC(C)CSc2nnnn2-c2ccccc2)CC1` (stereo not given), for which the PGE2 EC50 with compound came out at 1.27 nM.
`COCCn1c(SCC(=O)NCCc2ccccc2)nnc1-c1ccco1`: the PGE2 EC50 with compound turned out to be 1.4 nM.
Same read-out and setting: with `Cc1cc(C(=O)CSc2nc3ccccc3c(=O)n2C)c(C)n1Cc1ccc2c(c1)OCO2` the figure was 3.33 nM; with `Cc1cc(NC(=O)CN2CCCC(C)C2)n(-c2nc3ccccc3s2)n1` (stereo not given), 0.75 nM; with `CCCCOc1ccc(-c2c(C(=O)Nc3ccccc3)c(C)[nH]c(=S)c2C#N)cc1`, 2.8 nM.
With `Cc1sc2ncnc(Sc3ccccc3C(=O)O)c2c1C`, the PGE2 EC50 with compound worked out at 2.7 nM.
For the molecule `CNC(=O)NC(=O)CSc1nc(-c2cccs2)c(C#N)c(=O)[nH]1`, the PGE2 EC50 with compound is 3.08 nM.
On the same count and under the same terms, with `Cc1nccc2[nH]c(=O)c(C(=O)NC3CCCCC3C)cc12` (stereo not given) the figure was 1.44 nM; with `Cc1ccc(C)n1-n1c(C)nc2scc(-c3cccs3)c2c1=O`, 1.02 nM; with `N#Cc1c(N)nc2c3c(sc(=N)c2c1N)NC(=O)CC3c1c(F)cccc1Cl` (stereo not given), 0.74 nM.
As to `CCOCC(=O)Nc1sc2c(c1C(=O)OCC)CCCC2`, the outcome was active and the PGE2 EC50 with compound worked out at 1.18 nM.
With `S=c1[nH]nc(C2CCCCC2)n1Cc1ccccc1`, the PGE2 EC50 with compound was found to be 1.02 nM.
As for `Nc1ccccc1CCCC(=O)O`, the PGE2 EC50 with compound was determined as 0.98 nM.
Still for that read-out and setting: as for `CCOC(=O)c1cnc2ccc(OCC)cc2c1N(C)Cc1ccccc1`, the figure is 2.48 nM.
For `CC(C)Oc1nc(-c2ccccc2O)nc2ccccc12`, the result was active and the PGE2 EC50 with compound is 1.01 nM.
On to `CC(C)Sc1cc(N2CCOCC2)nc(-c2ccccc2)n1`, for which the result was active and the PGE2 EC50 with compound was determined as 1.22 nM.
Take `CC(C)=CCC/C(C)=C/CC/C(C)=C/CSc1ccccc1C(=O)O`: the PGE2 EC50 with compound amounted to 0.69 nM.
Still for that read-out and setting: with `CCOC(=O)Cn1c(=S)[nH]c2c(oc3ccc(Cl)cc32)c1=O` the figure was 2.77 nM; with `NC(=O)c1sc2nc(N3CCCCC3)c3c(c2c1N)CCCC3`, 2.62 nM; with `CCNc1nc(NCC)nc(SCCOc2ccc(C)cc2)n1`, 0.7 nM.
The same measure, in the same setting: as for `CCOC(=O)c1[nH]c2ccc(OC)cc2c1NS(=O)(=O)c1ccc(Cl)s1`, the figure is 2.87 nM.
Take `Cc1nn2c(N3CCCC3)cc(C(C)C)nc2c1-c1ccccc1`: the PGE2 EC50 with compound was 0.84 nM.
As for `COc1ccc(-c2cc(-c3n[nH]c(=S)n3-c3cccc4ccccc34)[nH]n2)cc1`, the PGE2 EC50 with compound was found to be 1.74 nM.
As for `c1ccc(Cn2c(-c3ccccc3)nc3nc4ccccc4nc32)cc1`, the PGE2 EC50 with compound came to 1.08 nM.
Turning to `CCOC(=O)c1c(NC(=O)c2ccncc2)sc(C)c1C`, the PGE2 EC50 with compound is 1 nM.
As to `CCOC(=O)c1sc(NC(=O)CN2C(=O)c3cccc4cccc(c34)C2=O)nc1C`, the PGE2 EC50 with compound amounted to 1.37 nM.
Still for that read-out and setting: with `CC(CC(=O)O)(CC(=O)O)C(=O)O` the figure was 0.87 nM; with `CC(=O)c1ccc2c(c1)c1ccccc1n2CC(C)C`, 1.35 nM.
The same measure, in the same setting: with `CC1(c2cc([N+](=O)[O-])cc([N+](=O)[O-])c2)CC(C)(C)N(C(=O)c2ccccc2)c2ccccc21` (stereo not given) the figure was 1.32 nM; with `Nc1cc(Cl)ccc1Oc1ccc(Cl)cc1`, 0.75 nM.
Regarding `C(=N\N(Cc1ccccc1)c1ccccc1)/c1cccnc1`, the outcome was active and the PGE2 EC50 with compound turned out to be 1.34 nM.
`Cc1ccccc1Nc1cccc2nonc12`: the PGE2 EC50 with compound turned out to be 0.64 nM.
`Cc1cccc(C)c1NC(=O)CSc1nc(COc2ccccc2)nc2ccccc12`: the PGE2 EC50 with compound was 0.82 nM.
For `COc1ccc(N=N/C(=C\O)C(=O)c2cccs2)cc1`, the PGE2 EC50 with compound amounted to 1.42 nM.
On to `N#CCSc1nc2sc3c(c2c(=O)n1C1CCCCC1)CCCC3`, for which the PGE2 EC50 with compound was 0.76 nM.
Take `O=C(Nc1cc(S(=O)(=O)Nc2ccc(Cl)cc2)ccc1N1CCCCC1)c1ccc(F)cc1Cl`: the PGE2 EC50 with compound came out at 0.87 nM.
For `CC(=O)NC(c1ccccc1)c1cccnc1` (stereo not given), the PGE2 EC50 with compound was 1.03 nM.
On to `COc1ccc(C2=Nn3c(nnc3-c3ccccc3)SC2)cc1OC`, for which the PGE2 EC50 with compound was determined as 2.63 nM.
`O=C(c1ccco1)N(Cc1cccc([N+](=O)[O-])c1)c1ccc(Br)cc1`: the PGE2 EC50 with compound stood at 1.01 nM.
In the case of `O=C(COc1cccc2ccccc12)N1c2ccccc2CCc2ccccc21`, the PGE2 EC50 with compound amounted to 1.19 nM.
For the molecule `O=C(O)c1ccc(-c2nc(-c3cccc(C(F)(F)F)c3)cs2)cc1`, the result was active and the PGE2 EC50 with compound turned out to be 1.19 nM.
Regarding `Cc1nc2ccccc2nc1SCC(=O)N1CCC(C)CC1`, the PGE2 EC50 with compound is 2.77 nM.
Take `CCCCc1nc(N2CCOCC2)c(C#N)c2c1CCCC2`: the PGE2 EC50 with compound came to 0.98 nM.
With `CCOC(=O)c1c(-c2ccccc2)oc2ccc(OC)cc12`, the PGE2 EC50 with compound is 1.04 nM.
Still for that read-out and setting: with `CCOc1ccccc1C(=O)Nc1ccccc1-c1ccccc1` the figure was 1.34 nM; with `c1ccc(C2Nc3ccccc3Oc3ccccc32)cc1` (stereo not given), 0.85 nM; with `C=CCOc1nc(-c2ccncc2)nc2ccccc12`, 2.48 nM.
Still for that read-out and setting: as for `O=C(Nc1ccccc1N1CCCCC1)c1ccc(F)cc1`, the figure is 1.01 nM; as for `O=C(C(c1ccccc1)c1ccccc1)N1CCCc2ccccc21`, 0.71 nM.
Still for that read-out and setting: as for `CC(C)(C)N(Cc1ccccc1)C(=O)c1ccc(Br)o1`, the figure is 0.94 nM.
As to `O=C(COC(=O)c1ccc(S(=O)(=O)N2CCCC2)cc1)Nc1ccc(F)cc1F`, the PGE2 EC50 with compound was found to be 1.73 nM.
`CC(C)OC(=O)c1c(NC(=O)c2ccco2)sc2c1CCCCC2`: the outcome was active and the PGE2 EC50 with compound was determined as 0.74 nM.
`Cc1ccc(NP(=O)(Oc2ccccc2F)Oc2ccccc2F)cc1C`: the PGE2 EC50 with compound was 1.35 nM.
As for `Cc1ccc(S(=O)(=O)N(CC(=O)N=Nc2c(O)[nH]c3ccccc23)c2ccc(C)c(C)c2)cc1`, the PGE2 EC50 with compound is 2.05 nM.
For the molecule `Cn1c(=O)[nH]c(=O)c2c1nc(CN1CCN(c3cccc(Cl)c3)CC1)n2CCCc1ccccc1`, the PGE2 EC50 with compound was 1.19 nM.
With `Brc1ccc(Cn2c(-c3cncs3)nc3ccccc32)cc1`, the PGE2 EC50 with compound was 1.66 nM.

The values above are taken from PubChem BioAssay AID1421 (Emory University Molecular Libraries Screening Center, 2008).
